Source: PMC4097363, “Trace amines inhibit insect odorant receptor function through antagonism of the co-receptor subunit” (F1000Research, 2014)
Read-outs that look alike come from different tables or passages of the source.

Assays:
Cqui\Orco = Cqui\Orco (Culex quinquefasciatus, UniProt Q309I4); assay: Antagonism of OLC12 activation of Orco in Xenopus oocytes; assay type: cell-based; conditions: for inhibition at 100 µM: Cqui\Orco activated by 30µM OLC12 (~EC5), 100µM of each amine, mean ± SEM, n = 3-10, read-out: inhibition of the OLC12 response; for IC50: read-out: IC 50 for inhibition of Cqui\Orco activation
Procedure: (§1) Follicle cells were removed by treatment with collagenase B (Boehringer Mannheim) for 2 hours at room temperature. Capped cRNA encoding each OR subunit was generated using mMessage mMachine kits (Ambion). For heteromeric ORs, 25 ng of cRNA encoding each OR subunit was injected into Stage V-VI Xenopus oocytes. For expression of Orco homomers, 50 ng of cRNA was injected. Oocytes were incubated at 18°C in Barth's saline (in mM: 88 NaCl, 1 KCl, 2.4 NaHCO 3, 0.3 CaNO 3, 0.41 CaCl 2, 0.82 MgSO 4, 15 HEPES, pH 7.6, and 150µg/ml ceftazidime) for 2–5 days prior to electrophysiological recording.
(§2) Odorant and Orco ligand induced currents were recorded under two-electrode voltage clamp, using an automated parallel electrophysiology system (OpusExpress 6000A, Molecular Devices). Oocytes were perfused with ND96 (in mM: 96 NaCl, 2 KCl, 1 CaCl 2, 1 MgCl 2, 5 HEPES, pH 7.5). Orco ligands were prepared as 50 or 100 mM stock solutions in DMSO and then diluted into ND96 on the day of the experiment. Odorants were prepared as 100 mM stock solutions in DMSO and then diluted into ND96. Unless otherwise noted, applications were for 60 sec at a flow rate of 1.0 ml/min, with extensive washing in ND96 at 4.6 ml/min between applications. Micropipettes were filled with 3 M KCl and had resistances of 0.2–2.0 MΩ. The holding potential was -70 mV. Current responses, filtered (4-pole, Bessel, low pass) at 20 Hz (-3 db) and sampled at 100 Hz, were captured and stored using OpusXpress 1.1 software (Molecular Devices).
To screen for agonist activity, oocytes were exposed to 30 sec applications of candidate compounds with 5 min washes between applications ( Figure 2A). For the concentration-response protocol ( Table 1), applications were for 20 sec at a flow rate of 1.65 ml/min. To measure antagonist activity at Orco ( Figure 2B, 2C, Figure 3, Figure 4A and Figure 5A), oocytes were exposed to two 60 sec applications of the synthetic Orco agonist OLC12 (2-((4-Ethyl-5-(4-pyridinyl)-4H-1,2,4-triazol-3-yl)sulfanyl)-N-(4-isopropylphenyl)acetamide) with 4 min washes between applications. Oocytes were then exposed to a 90 sec application of antagonist candidate, immediately followed by a 60 sec co-application of antagonist candidate and OLC12. The current response in the presence of antagonist candidate was compared to the mean of the preceding two responses to OLC12 alone and is presented as a percentage.
Initial analysis of electrophysiological data was done using Clampfit 9.1 software (Molecular Devices). Curve fitting and statistical analyses were done using Prism 5 (Graphpad). Concentration-inhibition data were fit to the equation: I = I max/(1+ (X/IC 50) ^n) where I represents the current response at a given concentration of inhibitor, X; I max is the maximal response in the absence of inhibitor; IC 50 is the concentration of inhibitor present that still allows a half maximal response from odorant; n is the apparent Hill coefficient. Concentration-response data were fit to the equation: I = I max/(1+(EC 50/X) ^n) where I represents the current response at a given concentration of odorant, X; I max is the maximal response; EC 50 is the concentration of agonist yielding a half maximal response; n is the apparent Hill coefficient. Statistical significance (p<0.05) was assessed using a two-tailed unpaired t test, an F test, or a one-way analysis of variance followed by the Dunnett's post-test, as appropriate.

Mcar\Orco+Mcar\Or5 = assay: Inhibition of odorant activation of heteromeric OR in Xenopus oocytes; assay type: cell-based, Megacyllene caryae; conditions: activated by 150µM 2-phenylethanol; 10µM tryptamine or 100µM tyramine
Procedure: as §1
as §2, with “Current responses, filtered (4-pole, Bessel, low pass) at 20 Hz (-3 db) and sampled at 100 Hz, were captured and stored using OpusXpress 1.1 software (Molecular Devices).” left out

Agam\Orco+Agam\Or27 = assay: as above; assay type: cell-based, Anopheles gambiae; conditions: activated by 3µM L-fenchone; 10µM tryptamine or 100µM tyramine
Procedure: as §1, §2
(§3) To measure inhibition of odorant activation of heteromeric ORs ( Figures 4B, 4C, Figure 5B and Figure 6), oocytes were exposed to a 30 sec application of odorant followed by a 10 min wash. Oocytes were then exposed to a 90 sec application of tryptamine or tyramine, immediately followed by a 30 sec co-application of tryptamine or tyramine and odorant. The current response in the presence of antagonist candidate was compared to the preceding response to odorant alone and expressed as a percentage. […] For this reason, we then re-normalized antagonism data to the value obtained when the assay was run in the absence of antagonist candidate (sham). In the “sham” assay, oocytes were exposed to a 30 sec application of odorant followed by a 10 min wash and then exposed to a 90 sec application of ND96 (no antagonist candidate), immediately followed by a 30 sec application of odorant. The second odorant response was compared to the first response and expressed as a percentage. In Figure 4B, 4C, Figure 5B and Figure 6, the sham value for 100nM eugenol was 57 ± 3% (mean ± SEM, n = 3). In Figure 5B, the sham value for 10nM eugenol was 93 ± 4% (n = 4). In Figure 4B and C, the sham value for 1µM Z11-14:OAc was 82 ± 6% (n = 6) and the sham value for 150µM 2-phenylethanol was 92 ± 2% (n = 3). In Figure 6, the sham value for 3µM L-fenchone was 83 ± 1% (n = 3), the sham value for 40µM acetophenone was 92 ± 1% (n = 3), the sham value for 70µM geranyl acetate was 97 ± 1% (n = 3), the sham value for 10µM 6-methyl-5-hepten-2-one was 94 ± 2% (n = 3) and the sham value for 3µM 2-nonanone was 81 ± 1% (n = 3).

Agam\Orco+Agam\Or28 = assay: as above; assay type: cell-based, Anopheles gambiae; conditions: activated by 40µM acetophenone; 10µM tryptamine or 100µM tyramine
Procedure: as §1, §2, §3

Agam\Orco+Agam\Or31 = assay: as above; assay type: cell-based, Anopheles gambiae; conditions: activated by 70µM geranyl acetate; 10µM tryptamine or 100µM tyramine
Procedure: as §1, §2, §3

Agam\Orco+Agam\Or39 = assay: as above; assay type: cell-based, Anopheles gambiae; conditions: activated by 10µM 6-methyl-5-hepten-2-one; 10µM tryptamine or 100µM tyramine
Procedure: as §1, §2, §3

Chain of Cqui\Orco (Q309I4 entry or part of it): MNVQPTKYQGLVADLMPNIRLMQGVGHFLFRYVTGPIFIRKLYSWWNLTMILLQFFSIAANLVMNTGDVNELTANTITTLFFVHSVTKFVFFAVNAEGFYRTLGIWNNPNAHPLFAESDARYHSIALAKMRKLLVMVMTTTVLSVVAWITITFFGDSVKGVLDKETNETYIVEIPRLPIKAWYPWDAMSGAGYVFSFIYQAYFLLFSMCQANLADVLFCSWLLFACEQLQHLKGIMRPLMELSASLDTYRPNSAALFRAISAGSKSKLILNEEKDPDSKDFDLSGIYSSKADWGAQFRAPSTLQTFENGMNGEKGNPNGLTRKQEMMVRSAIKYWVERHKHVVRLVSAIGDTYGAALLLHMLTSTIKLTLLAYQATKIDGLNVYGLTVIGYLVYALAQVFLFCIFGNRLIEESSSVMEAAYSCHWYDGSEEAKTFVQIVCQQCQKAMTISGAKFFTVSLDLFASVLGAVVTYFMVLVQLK

Structure (SMILES) | inhibition at 100 µM (Cqui\Orco) | inhibition of OLC12 activation of Orco (Cqui\Orco; Cqui\Orco, 30µM OLC12, 10µM tryptamine) | mechanism of antagonism of Cqui\Orco (Cqui\Orco; OLC12 increased from 30µM to 100µM) | IC50 (Cqui\Orco; activated by 30µM OLC12) | IC50 (Cqui\Orco; activated by 100µM OLC12) | inhibition of odorant activation of the OR (Mcar\Orco+Mcar\Or5) | inhibition of odorant activation of the OR (Agam\Orco+Agam\Or27) | inhibition of odorant activation of the OR (Agam\Orco+Agam\Or28) | inhibition of odorant activation of the OR (Agam\Orco+Agam\Or31) | inhibition of odorant activation of the OR (Agam\Orco+Agam\Or39) | less potent than tryptamine (IC50 ratio) (Cqui\Orco; Cqui\Orco activated by 30µM OLC12)
NCCc1c[nH]c2ccccc12 [tryptamine] | 92 ± 2% | inhibited OLC12 activation of Orco from each of these three insect species | competitive antagonist | 4.7 ± 0.7 µM | 143 ± 18 µM | substantial inhibition of each receptor | able to inhibit odorant activation of the receptor | able to inhibit odorant activation of the receptor | able to inhibit odorant activation of the receptor | able to inhibit odorant activation of the receptor | 
NCCc1ccc(O)cc1 [tyramine] | 40 ± 5% |  |  | 157 ± 22 µM |  | able to reduce odorant activation of these ORs, but was less effective than tryptamine | able to inhibit odorant activation of each of these receptors, but was less effective than tryptamine | able to inhibit odorant activation of each of these receptors, but was less effective than tryptamine | able to inhibit odorant activation of each of these receptors, but was less effective than tryptamine | able to inhibit odorant activation of each of these receptors, but was less effective than tryptamine | 33 fold
